The record followed here is patent US20250051409A1, “MODULATORS OF PHOSPHATIDYLSERlNE DECARBOXYLASE AND USE THEREOF” (THE NATIONAL INSTITUTE FOR BIOTECHNOLOGY IN THE NEGEV LTD., priority 2021, published 2025).

Like-named read-outs stand apart in the source and are kept apart here. Square brackets hold non-standard residues; d marks the D form. Ends that are not written are not given here. Peptide text beside a SMILES is read from it. Dmt = Cc1cc(O)cc(C)c1C[C@H](N)C(=O)O; Orn = NCCC[C@H](N)C(=O)O

This experiment relates to A549 lung cancer cell. Format: cell-based, human. How it is done:
(B) Inhibition of PSD activity by the 2F3 (●) or 1C11 (◯) peptide. PSD activity was measured using the DSB-3 method. (C-E) Cell proliferation inhibition following incubation of A549 cells with the indicated mitochondria- or nuclear-targeted peptides for 24 h in a serum-free medium, and cell proliferation was assayed using the SRB method. Results are the means±SEM (n=3). (F) A549 cells were incubated for 90 min with 5 μM of the mitochondria- or nuclear targeted FITC-labelled peptides, immunostained with anti-SMAC antibodies and with DAPI and visualized by confocal microscope for subcellular localization. Arrows indicates nuclear (n=3). Scale bars represent 20
(A) A549 cells were incubated with the indicated concentration of 1C11-HTRA2-derived peptide targeted to the mitochondrion with the targeting sequence added to the N-terminus (N-Ter) or the C-terminus (C-Ter). (B) Mitochondrion targeted 1C11-HTRA2-derived peptide was modified by replacing the three amino acids in the C or the N-terminus of the peptide, or all amino acids in the peptide with the D-confirmation of the amino acid (underlined amino acids)). Following 24 h incubation in a serum-free medium, cell proliferation was assayed using the SRB method. (C) The concentration required for 50% inhibition of cell proliferation (IC50) is presented. Results are the means±SEM (n=3).
A549 (human lung adenocarcinoma epithelial cell), HEK-293T (human embryonic kidney), H1563/CRL-5875 (non-small cell lung cancer adenocarcinoma), H-358 (bronchioalveolar carcinoma), HaCaT (spontaneously transformed aneuploid immortal human skin keratinocyte), and WI-38 (fibroblast-like fetal lung cell) cell lines were purchased from the American Type Culture Collection (ATCC) (Manassas, VA), and were maintained as per ATCC instructions. Cells were maintained in ATCC recommended medium at 37° C. in an incubator with 5% CO2. Cell lines were routinely tested for Mycoplasma contamination. For SMAC overexpression, cells were seeded (200,000 cells/well) on 6-well culture plates and allowed to adhere overnight. These adhered cells were transfected with PVMV3.1-SMAC or empty vector using the JetPRIME transfection reagent (Illkirch, France), according to the manufacturers' instructions. Medium was changed 6 h post transfection, and cells were harvested 48 h post transfection.
Cells were seeded in 96-well cell culture plates (8,000/well) and allowed to grow for 48 h. After washing with PBS, cells were fixed with 10% trichloroacetic acid, and stained with SRB for 20 min. Excess SRB were removed, and cells were washed with 1% acetic acid. SRB extraction was done using 100 mM Tris-base, and absorbance at 510 nm was determined using an Infinite M1000 plate reader (Tecan, Mannedorf, Switzerland).

For the compound ALSTSSPIPSVPQSQAQPQTGSGAS [2F3], the IC50 (usually the concentration that inhibits the measured activity by half) was found to be 19.6 µM.
For `CC[C@H](C)[C@H](NC(=O)[C@@H]1CCCN1C(=O)[C@H](CO)NC(=O)[C@H](CO)NC(=O)[C@@H](NC(=O)[C@H](CO)NC(=O)[C@H](CC(C)C)NC(=O)[C@H](C)NC(=O)[C@H](CCCCN)NC(=O)[C@H](CCCNC(=N)N)NC(=O)[C@@H](CCCNC(=N)N)NC(=O)[C@@H](N)CCCNC(=N)N)[C@@H](C)O)C(=O)N1CCC[C@H]1C(=O)N[C@@H](CO)C(=O)N[C@H](C(=O)N1CCC[C@H]1C(=O)N[C@@H](CCC(N)=O)C(=O)N[C@@H](CO)C(=O)N[C@@H](CCC(N)=O)C(=O)N[C@@H](C)C(=O)N[C@@H](CCC(N)=O)C(=O)N1CCC[C@H]1C(=O)N[C@@H](CCC(N)=O)C(=O)N[C@H](C(=O)NCC(=O)N[C@@H](CO)C(=O)NCC(=O)N[C@@H](C)C(=O)N[C@@H](CO)C(=O)O)[C@@H](C)O)C(C)C` [R-{D-Arg}-RK-2F3] (H-R[dR]RKALSTSSPIPSVPQSQAQPQTGSGAS-OH; N-terminus and C-terminus assumed), half-maximal inhibition (24 h) (IC50) required 28.9 ± 5.2 µM.
As for `Cc1cc(O)cc(C)c1C[C@H](NC(=O)[C@@H](CCCNC(=N)N)NC(=O)[C@H](CCC(N)=O)NC(=O)[C@H](CCC(N)=O)NC(=O)[C@H](CO)NC(=O)[C@H](CC(C)C)NC(=O)[C@H](Cc1ccccc1)NC(=O)[C@H](CC(=O)O)NC(=O)[C@H](Cc1ccccc1)NC(=O)[C@H](C)NC(=O)[C@H](CC(C)C)NC(=O)[C@H](CC(=O)O)NC(=O)[C@H](CO)NC(=O)[C@H](CO)NC(=O)[C@H](Cc1c[nH]cn1)NC(=O)[C@H](CC(=O)O)NC(=O)[C@@H](NC(=O)CNC(=O)[C@H](CCC(N)=O)NC(=O)[C@H](Cc1ccccc1)NC(=O)[C@H](C)NC(=O)[C@H](CCCNC(=N)N)NC(=O)[C@H](CO)NC(=O)[C@H](CO)NC(=O)[C@H](CCC(N)=O)NC(=O)[C@H](CC(N)=O)NC(=O)[C@@H]1CCCN1)[C@@H](C)O)C(=O)N[C@@H](CCCN)C(=O)N[C@@H](Cc1ccccc1)C(N)=O` [2I8-(D-Arg)-Dmt-Orn-Phe-NH2] (H-PNQSSRAFQGTDHSSDLAFDFLSQQ[dR][Dmt][Orn]F-NH2; N-terminus assumed), 30.2 ± 3.6 µM corresponded to half-maximal inhibition (24 h) (IC50).
Where the note is “24 h”, `Cc1cc(O)cc(C)c1C[C@H](NC(=O)[C@H](N)CCCNC(=N)N)C(=O)N[C@@H](CCCN)C(=O)N[C@@H](Cc1ccccc1)C(=O)N1CCC[C@H]1C(=O)N[C@@H](CC(N)=O)C(=O)N[C@@H](CCC(N)=O)C(=O)N[C@@H](CO)C(=O)N[C@@H](CO)C(=O)N[C@@H](CCCNC(=N)N)C(=O)N[C@@H](C)C(=O)N[C@@H](Cc1ccccc1)C(=O)N[C@@H](CCC(N)=O)C(=O)NCC(=O)N[C@H](C(=O)N[C@@H](CC(=O)O)C(=O)N[C@@H](Cc1c[nH]cn1)C(=O)N[C@@H](CO)C(=O)N[C@@H](CO)C(=O)N[C@@H](CC(=O)O)C(=O)N[C@@H](CC(C)C)C(=O)N[C@@H](C)C(=O)N[C@@H](Cc1ccccc1)C(=O)N[C@@H](CC(=O)O)C(=O)N[C@@H](Cc1ccccc1)C(=O)N[C@@H](CC(C)C)C(=O)N[C@@H](CO)C(=O)N[C@@H](CCC(N)=O)C(=O)N[C@@H](CCC(N)=O)C(=O)O)[C@@H](C)O` [D-Arg-Dmt-Orn-Phe-2I8] (H-[dR][Dmt][Orn]FPNQSSRAFQGTDHSSDLAFDFLSQQ-OH; N-terminus and C-terminus assumed) displayed an IC50 of 66.8 ± 4.7 µM.
